Reference: patent US9611262B2, “Substituted 2-azabicycles and their use as orexin receptor modulators” (JANSSEN PHARMACEUTICA NV, priority 2014, dated 2017)

These molecules were tested against human orexin 2 receptor (Homo sapiens (Human), UniProt O43614) (assay: Human orexin 2 receptor radioligand binding ([3H]-EMPA competition)). Details: HEK293 stably expressing human orexin 2 receptor; 2 nM [3H]-EMPA; averages of 2-20 runs; read-out: hOX2 Ki.
Protocol: The in vitro affinity of the compounds of the invention for the rat/human orexin 1 and human orexin 2 receptors was determined by competitive radioligand binding using [^3H](1-(5-(2-fluoro-phenyl)-2-methyl-thiazol-4-yl)-1-((S)-2-(5-phenyl-(1,3,4)oxadiazol-2-ylmethyl)-pyrrolidin-1-yl)-methanone) (Langmead et al., 2004) and [^3H]EMPA (n-ethyl-2[96-methoxy-pyridin-3-yl)-(toluene-2-sulfonyl)-amino]-N-pyridin-3-ylmethyl acetamide), respectively (Langmead et al., 2004, British Journal of Pharmacology 141:340-346; Malherbe et al., 2004, British Journal of Pharmacology 156:1326-41).
Data are analyzed using pc-Sandy macro and graphed on Graphpad Prism 5. For analysis, each concentration point is averaged from triplicate values and the averaged values are plotted on Graphpad Prism. The IC50 was determined by applying the following equation (GraphPad Prism 5.0, San Diego) for one site competition where X=log (concentration) and Y=specific binding. Top denotes the total [^3H]— (1-(5-(2-fluoro-phenyl)-2-methyl-thiazol-4-yl)-1-((S)-2-(5-phenyl-(1,3,4)oxadiazol-2-ylmethyl)-pyrrolidin-1-yl)-methanone) binding, bottom denotes the nonspecific [^3H]— (1-(5-(2-fluoro-phenyl)-2-methyl-thiazol-4-yl)-1-((S)-2-(5-phenyl-(1,3,4)oxadiazol-2-ylmethyl)-pyrrolidin-1-yl)-methanone) binding. Graphpad Prism calculates Ki value from IC50 and the pre-determined Kd values for [^3H]— (1-(5-(2-fluoro-phenyl)-2-methyl-thiazol-4-yl)-1-((S)-2-(5-phenyl-(1,3,4)oxadiazol-2-ylmethyl)-pyrrolidin-1-yl)-methanone) and [^3H]-EMPA. The Ki for each compound is then uploaded into 3DX. Each run comprises individual compounds in triplicate. The data in Table 1 and Table 2 represent averages from between 2-20 runs
Human Orexin 2 Receptor Radioligand Binding Studies
HEK293 stably expressing human orexin 2 receptor (Genebank accession number NM_001526) were grown to confluency in DMEM (Hyclone, cat # SH30022), 10% FBS, 1× Pen/Strep, 1× NaPyruvate, 10 mM HEPES, 600 μg/ml G418 media on 150 cm^2 tissue culture plates, washed with 5 mM EDTA in PBS (HyClone Dulbecco's Phosphate Buffered Saline 1× with Calcium and Magnesium, Cat # SH30264.01, hereafter referred to simply as PBS) and scraped into 50 ml tubes. After centrifugation (2K×G, 5 min at 4° C.), the supernatant was aspirated and the pellets frozen and stored at −80° C. Cells were resuspended in PBS in the presence of 1 tablet of protease inhibitor cocktail (Roche, Cat. #11836145001) per 50 mL. […] Compounds were solubilized in 100% DMSO (Acros Organics, Cat. #61042-1000) and tested over a range of 7 concentration (from 0.1 nM to 10 μM). The final concentration of DMSO in the reactions is equal to or less than 0.1%. Total and nonspecific binding was determined in the absence and presence of 10 μM almorexant. The total volume of each reaction is 200 μL (20 μL of diluted compounds, 80 μL of [^3H]-EMPA diluted in PBS and 100 μL of the cell suspension). Reactions were run for 60 min at room temperature and terminated by filtration through GF/C filter plates (PerkinElmer, Cat. #6005174) presoaked in 0.3% polyethylenimine using the cell harvester (PerkinElmer Filtermate). The plates were washed 3 times by aspirating 30 ml PBS through the plates. Plates were dried in 55° C. oven for 60 min, scintillation fluid was added, and the radioactivity was counted on a Topcount (Packard).

human orexin 2 receptor, sequence (O43614 whole entry): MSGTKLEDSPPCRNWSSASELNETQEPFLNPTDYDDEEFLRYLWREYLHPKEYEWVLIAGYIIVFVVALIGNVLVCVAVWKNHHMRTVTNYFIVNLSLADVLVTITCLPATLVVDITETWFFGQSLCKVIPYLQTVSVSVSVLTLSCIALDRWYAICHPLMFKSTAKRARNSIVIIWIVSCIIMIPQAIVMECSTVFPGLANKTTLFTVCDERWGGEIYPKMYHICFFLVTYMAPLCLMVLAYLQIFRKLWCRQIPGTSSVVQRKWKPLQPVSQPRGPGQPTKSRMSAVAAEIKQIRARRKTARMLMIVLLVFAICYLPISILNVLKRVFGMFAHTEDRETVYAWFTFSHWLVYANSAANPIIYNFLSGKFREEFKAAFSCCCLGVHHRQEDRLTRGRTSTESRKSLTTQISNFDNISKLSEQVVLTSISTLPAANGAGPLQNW

| Compound | Ki [µM] |
| --- | --- |
| CC1C2CC(Nc3cnc(C(F)(F)F)cn3)C(C2)N1C(=O)c1ccccc1-n1nccn1 (racemic) [Example 5, (R/S)-(2-(2H-1,2,3-triazol-2-yl)phenyl)(3-methyl-6-((5-(trifluoromethyl)pyrazin-2-yl)amino)-2-azabicyclo[2.2.1]heptan-2-yl)methanone] | 0.278 |
| CC1C2CC(Oc3ccc(C(F)(F)F)cn3)C(C2)N1C(=O)c1ncccc1-n1nccn1 (racemic) [Example 9, (R/S)-(3-(2H-1,2,3-triazol-2-yl)pyridin-2-yl)(3-methyl-6-((5-(trifluoromethyl)pyridin-2-yl)oxy)-2-azabicyclo[2.2.1]heptan-2-yl)methanone] | 3.7 |
| Cc1cnc(C(=O)N2C(C)C3CC(Oc4ccc(C(F)(F)F)cn4)C2C3)c(-n2nccn2)c1 (racemic) [Example 11, (R/S)-(5-methyl-3-(2H-1,2,3-triazol-2-yl)pyridin-2-yl)(3-methyl-6-((5-(trifluoromethyl)pyridin-2-yl)oxy)-2-azabicyclo[2.2.1]heptan-2-yl)methanone] | 2.1 |
| CCOc1ccc(C)nc1C(=O)N1C(C)C2CC(Oc3ccc(C(F)(F)F)cn3)C1C2 (racemic) [Example 13, (R/S)-(3-ethoxy-6-methylpyridin-2-yl)(3-methyl-6-((5-(trifluoromethyl)pyridin-2-yl)oxy)-2-azabicyclo[2.2.1]heptan-2-yl)methanone] | 1.6 |
| CC1C2CC(Oc3ccc(C(F)(F)F)cn3)C(C2)N1C(=O)c1cc(F)ccc1-c1ncccn1 (racemic) [Example 18, (R/S)-(5-fluoro-2-(pyrimidin-2-yl)phenyl)(−3-methyl-6-((5-(trifluoromethyl)pyridin-2-yl)oxy)-2-azabicyclo[2.2.1]heptan-2-yl)methanone] | 1.6 |
| Cc1cnc(C(=O)N2C(C)C3CC(Nc4ccc(C(F)(F)F)cn4)C2C3)c(-n2nccn2)c1 (racemic) [Example 61, (R/S)-(5-methyl-3-(2H-1,2,3-triazol-2-yl)pyridin-2-yl)(3-methyl-6-((5-(trifluoromethyl)pyridin-2-yl)amino)-2-azabicyclo[2.2.1]heptan-2-yl)methanone] | 0.585 |
| O=C(c1ccccc1-n1nccn1)N1C(CF)C2CC(Oc3ccc(C(F)(F)F)cn3)C1C2 (racemic) [Example 73, (R/S)-(2-(2H-1,2,3-triazol-2-yl)phenyl)(3-(fluoromethyl)-6-((5-(trifluoromethyl)pyridin-2-yl)oxy)-2-azabicyclo[2.2.1]heptan-2-yl)methanone] | 2 |
| CC(C)CC1C2CC(Oc3ccc(C(F)(F)F)cn3)C(C2)N1C(=O)c1cccc(F)c1-c1ncccn1 (racemic) [Example 211, (R/S)-(3-fluoro-2-pyrimidin-2-yl-phenyl)-[2-isobutyl-5-[[5-(trifluoromethyl)-2-pyridyl]oxy]-3-azabicyclo[2.2.1]heptan-3-yl]methanone] | 3.3 |
| C[C@@H]1[C@H]2C[C@@H](Oc3ccc(C(F)(F)F)cn3)[C@H](C2)N1C(=O)c1c(F)cccc1-n1nccn1 (relative stereo) [Example 30, (2-fluoro-6-(2H-1,2,3-triazol-2-yl)phenyl)((1S*,3R*,4R*,6R*)-3-methyl-6-((5-(trifluoromethyl)pyridin-2-yl)oxy)-2-azabicyclo[2.2.1]heptan-2-yl)methanone] | 0.689 |
| C[C@@H]1[C@H]2C[C@@H](Oc3cnc(C(F)(F)F)cn3)[C@H](C2)N1C(=O)c1ccc(F)cc1-n1nccn1 (relative stereo) [Example 53, (4-fluoro-2-(2H-1,2,3-triazol-2-yl)phenyl)((1S*,3R*,4R*,6R*)-3-methyl-6-((5-(trifluoromethyl)pyrazin-2-yl)oxy)-2-azabicyclo[2.2.1]heptan-2-yl)methanone] | 7.6 |
| CCOc1ccc(C)nc1C(=O)N1[C@H](C)[C@H]2C[C@@H](Oc3cnc(C(F)(F)F)cn3)[C@@H]1C2 (relative stereo) [Example 56, (3-ethoxy-6-methylpyridin-2-yl)((1S*,3R*,4R*,6R*)-3-methyl-6-((5-(trifluoromethyl)pyrazin-2-yl)oxy)-2-azabicyclo[2.2.1]heptan-2-yl)methanone] | 7 |

Next, values leading:

| Ki [µM] | Compound |
| --- | --- |
| 3.1 | CC1C2CC(Oc3ccc(C(F)(F)F)cn3)C(C2)N1C(=O)c1cccc(F)c1-c1ncc(F)cn1 (racemic) [Example 20, (R/S)-(3-fluoro-2-(5-fluoropyrimidin-2-yl)phenyl)(3-methyl-6-((5-(trifluoromethyl)pyridin-2-yl)oxy)-2-azabicyclo[2.2.1]heptan-2-yl)methanone] |
| 0.625 | CC1C2CC(Nc3cnc(C(F)(F)F)cn3)C(C2)N1C(=O)c1ccccc1-n1nccn1 (racemic) [Example 68, (R/S)-(2-(2H-1,2,3-triazol-2-yl)phenyl)(3-methyl-6-((5-(trifluoromethyl)pyrazin-2-yl)amino)-2-azabicyclo[2.2.1]heptan-2-yl)methanone] |
| 2 | Cc1ccc(-n2nccn2)c(C(=O)N2C(CF)C3CC(Oc4ccc(C(F)(F)F)cn4)C2C3)n1 (racemic) [Example 70] |
| > 10 | Cc1cnc(-n2nccn2)c(C(=O)N2C(CF)C3CC(Oc4ccc(C(F)(F)F)cn4)C2C3)c1 (racemic) [Example 72] |
| 1.5 | Cc1ccc(-n2nccn2)c(C(=O)N2C(CC(C)C)C3CC(Oc4ccc(C(F)(F)F)cn4)C2C3)n1 (racemic) [Example 210, (R/S)-[2-isobutyl-5-[[5-(trifluoromethyl)-2-pyridyl]oxy]-3-azabicyclo[2.2.1]heptan-3-yl]-[6-methyl-3-(triazol-2-yl)-2-pyridyl]methanone] |
| 0.316 | CCC1C2CC(Oc3ccc(C(F)(F)F)cn3)C(C2)N1C(=O)c1ccccc1-c1ncccn1 (racemic) [Example 214, (R/S)-[2-ethyl-5-[[5-(trifluoromethyl)-2-pyridyl]oxy]-3-azabicyclo[2.2.1]heptan-3-yl]-(2-pyrimidin-2-ylphenyl)methanone] |
| 2.4 | C[C@@H]1[C@H]2C[C@@H](Oc3ccc(C(F)(F)F)cn3)[C@H](C2)N1C(=O)c1ncccc1-n1nccn1 (relative stereo) [Example 23, (3-(2H-1,2,3-triazol-2-yl)pyridin-2-yl)((1S*,3R*,4R*,6R*)-3-methyl-6-((5-(trifluoromethyl)pyridin-2-yl)oxy)-2-azabicyclo[2.2.1]heptan-2-yl)methanone] |
| 0.602 | C[C@@H]1[C@H]2C[C@@H](Oc3ccc(C(F)(F)F)cn3)[C@H](C2)N1C(=O)c1ccccc1-c1ncccn1 (relative stereo) [Example 33, ((1S*,3R*,4R*,6R*)-3-methyl-6-((5-(trifluoromethyl)pyridin-2-yl)oxy)-2-azabicyclo[2.2.1]heptan-2-yl)(2-(pyrimidin-2-yl)phenyl)methanone] |
| > 10 | Cc1cnc(C(=O)N2[C@H](C)[C@H]3C[C@@H](Oc4cnc(C(F)(F)F)cn4)[C@@H]2C3)c(-n2nccn2)c1 (relative stereo) [Example 48, (5-methyl-3-(2H-1,2,3-triazol-2-yl)pyridin-2-yl)((1S*,3R*,4R*,6R*)-3-methyl-6-((5-(trifluoromethyl)pyrazin-2-yl)oxy)-2-azabicyclo[2.2.1]heptan-2-yl)methanone] |
| > 10 | Cc1ccc(C(=O)N2[C@H](C)[C@H]3C[C@@H](Oc4cnc(C(F)(F)F)cn4)[C@@H]2C3)c(-n2nccn2)n1 (relative stereo) [Example 49, (6-methyl-2-(2H-1,2,3-triazol-2-yl)pyridin-3-yl)((1S*,3R*,4R*,6R*)-3-methyl-6-((5-(trifluoromethyl)pyrazin-2-yl)oxy)-2-azabicyclo[2.2.1]heptan-2-yl)methanone] |
